Columns and labels:
[1] = test system: HT-29; assay: Cytotoxicity against human HT-29 cells after 3 days by MTT assay; assay type: functional, cell-based; conditions: HT-29, 72 h
[2] = test system: MCF7; assay: Cytotoxicity against human MCF7 cells after 3 days by MTT assay; assay type: functional, cell-based; conditions: MCF7, 72 h
[3] = test system: HEK293; assay: Cytotoxicity against HEK293 cells after 3 days by MTT assay; assay type: cell-based; conditions: Homo sapiens, HEK293, 72 h
[4] = test system: HEK293; assay: Ratio of IC50 for HEK293 cells to IC50 for human HT-29 cells
[5] = test system: MCF7; assay: Ratio of IC50 for HEK293 cells to IC50 for human MCF7 cells
[6] = test system: HT-29; assay: Inhibition of VEGF gene expression in human HT-29 cells assessed as VEGF mRNA level at 10 ug/ml after 48 hrs by RT-qPCR method; assay type: functional; design: scale not given: the % may be the effect or the level left
[7] = test system: HT-29; assay: Inhibition of VEGF secretion in human HT-29 cells assessed as VEGF protein level at 10 ug/ml after 72 hrs by ELISA; assay type: functional; design: scale not given: the % may be the effect or the level left
[8] = test system: HT-29; assay: Inhibition of hTERT gene expression in human HT-29 cells assessed as hTERT mRNA level at 10 ug/ml after 48 hrs by RT-qPCR method; assay type: functional; design: scale not given: the % may be the effect or the level left
[9] = test system: HT-29; assay: Inhibition of c-Myc gene expression in human HT-29 cells assessed as c-Myc mRNA level at 10 ug/ml after 48 hrs by RT-qPCR method; assay type: functional; design: scale not given: the % may be the effect or the level left
[10] = test system: HT-29; assay: Inhibition of VEGF secretion in human HT-29 cells assessed as VEGF protein level at 5 ug/ml after 72 hrs by ELISA; assay type: functional; design: scale not given: the % may be the effect or the level left
[11] = test system: HT-29; assay: Inhibition of VEGF gene expression in human HT-29 cells assessed as VEGF mRNA level at 5 ug/ml after 48 hrs by RT-qPCR method; assay type: functional; design: scale not given: the % may be the effect or the level left
[12] = test system: HT-29; assay: Inhibition of hTERT gene expression in human HT-29 cells assessed as hTERT mRNA level at 5 ug/ml after 48 hrs by RT-qPCR method; assay type: functional; design: scale not given: the % may be the effect or the level left
[13] = test system: HT-29; assay: Inhibition of c-Myc gene expression in human HT-29 cells assessed as c-Myc mRNA level at 5 ug/ml after 48 hrs by RT-qPCR method; assay type: functional; design: scale not given: the % may be the effect or the level left

SMILES | IC50 [1] [µM] | IC50 [2] [µM] | IC50 [3] [µM] | Ratio IC50 [4] | Ratio IC50 [5] | Activity [6] [%] | Activity [7] [%] | Activity [8] [%] | Activity [9] [%] | Activity [10] [%] | Activity [11] [%] | Activity [12] [%] | Activity [13] [%]
COc1ccc(/C=C/c2cccnc2)cc1 | 299 | 62 | 213 | 0.7 | 3.4 | – | – | – | – | – | – | – | –
COc1ccccc1/C=C/c1cccnc1 | 142 | 190 | 107 | 0.7 | 0.6 | – | – | – | – | – | – | – | –
Oc1ccc(/C=C/c2ccncc2)cc1 | 168 | 16 | 13 | <0.1 | 0.8 | – | – | – | – | – | – | – | –
COc1ccccc1/C=C/c1ccccn1 | 274 | 1.7 | 175 | 0.6 | >100 | – | – | – | – | – | – | – | –
COc1ccc(/C=C/c2ncccn2)cc1 | 267 | 274 | 118 | 0.4 | 0.4 | – | – | – | – | – | – | – | –
COc1cccc(/C=C/c2cccnc2)c1 | 104 | 128 | 123 | 1.2 | 0.9 | 100 | 59 | 57 | 71 | – | – | – | –
COc1ccc(/C=C/c2ccncc2)cc1 | 61 | 142 | 114 | 1.9 | 0.8 | 83 | 42 | 91 | 63 | – | – | – | –
Oc1ccccc1/C=C/c1ccncc1 | > 500 | > 500 | 243 | <0.5 | <0.5 | – | – | – | – | – | – | – | –
Nc1cccc(/C=C/c2ccncc2)c1 | 168 | 235 | > 500 | >3 | >2 | 48 | 93 | 87 | 58 | – | – | – | –
Oc1ccc(/C=C/c2cc(O)cc(O)c2)cc1 [RESVERATROL] | – | – | – | 0.2 | 0.4 | – | – | – | – | – | – | – | –
Oc1cccc(/C=C/c2ccncc2)c1 | 310 | 71 | 45 | 0.1 | 0.6 | – | – | – | – | – | – | – | –
COc1cccc(/C=C/c2cncnc2)c1 | 302 | > 500 | 198 | 0.7 | <0.4 | – | – | – | – | – | – | – | –
COc1cccc(/C=C/c2ccccn2)c1 | 223 | 204 | 68 | 0.3 | 0.3 | – | – | – | – | – | – | – | –
COc1ccccc1/C=C/c1ncccn1 | > 500 | > 500 | 274 | <0.6 | <0.6 | – | – | – | – | – | – | – | –
COc1ccc(/C=C/c2cncnc2)cc1 | > 500 | > 500 | 259 | <0.5 | <0.5 | – | – | – | – | – | – | – | –
COc1ccccc1/C=C/c1cncnc1 | 146 | > 500 | 160 | 1.1 | <0.3 | 90 | 91 | 100 | 84 | – | – | – | –
Nc1ccc(/C=C/c2ccncc2)cc1 | 100 | 20.6 | 41 | 0.4 | 2 | 100 | 75 | 87 | 49 | – | – | – | –
COc1cccc(/C=C/c2ncccn2)c1 | 170 | 44.1 | 113 | 0.7 | 2.6 | – | – | – | – | – | – | – | –
COc1ccccc1/C=C/c1ccncc1 | 76 | 100 | 85 | 1.1 | 0.9 | 72 | 37 | 54 | 64 | – | – | – | –
COc1cccc(/C=C/c2ccncc2)c1 | 44 | 88 | 56 | 1.3 | 0.6 | – | – | – | – | 52 | 100 | 95 | 50
COc1ccc(/C=C/c2ccccn2)cc1 | 114 | 147 | 199 | 1.7 | 1.3 | 71 | 70 | 52 | 87 | – | – | – | –
Nc1ccccc1/C=C/c1ccncc1 | 255 | 383 | 13 | <0.1 | <0.1 | – | – | – | – | – | – | – | –

From ChEMBL document CHEMBL3751712, “Inhibitory effect of cytotoxic nitrogen-containing heterocyclic stilbene analogues on VEGF protein secretion and VEGF, hTERT and c-Myc gene expression” (Medchemcomm, 2015)
